In patent US20260209214A1, “LSD1 MODULATORS” (RECURSION PHARMACEUTICALS, INC., priority 2022, published 2026):
Where a name gives a salt, the structure may show the parent alone.

The compounds below were run against Recombinant human LSD1 (Homo sapiens, UniProt O60341) (assay: LSD1 inhibition assay (HTRF LSD1 Histone H3K4 mono-demethylation assay, me1->me0)). Settings: 20 nM recombinant human LSD1, 95 nM H3K4(me1) biotinylated peptide, 15 min preincubation, 60 min at 25° C., read-out: LSD1 inhibition IC50 (nM range).
Type: biochemical
Method in brief: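 HTRF demethylation (me1->me0) read-out: streptavidin-XL665 and anti-H3K4me0 cryptate added after reaction, ratio measured after 90 min dark. Reaction: 95 nM H3K4me1 biotin-peptide, 20 nM LSD1 (15-min compound pre-incubation), 60 min, 25 °C, buffer pH 8.5 plus FAD and DTT; 4-parameter logistic IC50.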

SMILES	IC50
N#Cc1ccc(-c2cccc(CC3CNCCO3)c2-c2cncs2)cc1 (stereo not shown) [Example 34, 3′-[(morpholin-2-yl)methyl]-2′-(1,3-thiazol-5-yl)-[1,1′-biphenyl]-4-carbonitrile]	10 to 25 nM
N#Cc1ccc(-c2cccc(CN3[C@@H]4CC[C@H]3C[C@H](N)C4)c2C2CC2)cc1F [Example 321, 3'-{[(1R,3S,5S)-3-amino-8-azabicyclo[3.2.1]octan-8-yl]methyl}-2'-cyclopropyl-3-fluoro-[1,1'-biphenyl]-4-carbonitrile]	10 to 25 nM
N#Cc1ccc(-c2cc(F)cc(C[C@@H]3CNCCO3)c2-c2ccns2)cc1F (single isomer, unassigned) [Example 14]	10 to 25 nM
C[C@]1(N)C[C@H]2CC[C@@H]1N2Cc1cccc(-c2ccc(C#N)c(F)c2)c1C1CC1 (racemic) [Example 229, 3'-{[(1S,2S,4R)-2-amino-2-methyl-7-azabicyclo[2.2.1]heptan-7-yl]methyl}-2'-cyclopropyl-3-fluoro-[1,1'-biphenyl]-4-carbonitrile]	25 to 100 nM
N#Cc1ccc(-c2cc(F)cc(CN3[C@H]4CC[C@@H]3[C@H](N)C4)c2C2CC2)cc1F (single isomer, unassigned) [Example 223]	10 to 25 nM
N#Cc1ccc(-c2cccc(CN3[C@@H]4CC[C@H]3[C@@H](N)C4)c2-c2ccns2)cc1 (racemic) [Example 170, 3'-{[(1S,2S,4R)-2-amino-7-azabicyclo[2.2.1]heptan-7-yl]methyl}-2'-(1,2-thiazol-5-yl)-[1,1'-biphenyl]-4-carbonitrile]	10 to 25 nM
N#Cc1ccc(-c2cccc(C[C@H]3CNCCO3)c2-c2ccns2)cc1 (single isomer, unassigned) [Example 5, hydrochloride]	10 to 25 nM
CC(C)N[C@@H]1C[C@@H]2CC[C@H]1N2Cc1cccc(-c2ccc(C#N)c(F)c2)c1C1CC1 (single isomer, unassigned) [Example 248]	100 to 1000 nM
N#Cc1ccc(-c2cc(CC3CNCCO3)ccc2N2CCC(O)(C3CC3)CC2)cc1F (stereo not shown) [Example 60, 2′-(4-cyclopropyl-4-hydroxypiperidin-1-yl)-3-fluoro-5′-[(morpholin-2-yl)methyl]-[1,1′-biphenyl]-4-carbonitrile]	25 to 100 nM
Cc1cc(CC2CNCCO2)c(-c2cncs2)c(-c2ccc(C#N)cc2)c1 (stereo not shown) [Example 39, 5′-methyl-3′-[(morpholin-2-yl)methyl]-2′-(1,3-thiazol-5-yl)-[1,1′-biphenyl]-4-carbonitrile]	10 to 25 nM
N#Cc1ccc(-c2cccc(CC3CNCCO3)c2C2=CCCC2)cc1F (stereo not shown) [Example 64, 2′-(cyclopent-1-en-1-yl)-3-fluoro-3′-[(morpholin-2-yl)methyl]-[1,1′-biphenyl]-4-carbonitrile]	25 to 100 nM
N#Cc1ccc(-c2cc(CN3[C@@H]4CC[C@H]3[C@@H](N)C4)ccc2-c2nccs2)cc1F (racemic) [Example 253, 5'-{[(1S,2S,4R)-2-amino-7-azabicyclo[2.2.1]heptan-7-yl]methyl}-3-fluoro-2'-(1,3-thiazol-2-yl)-[1,1'-biphenyl]-4-carbonitrile]	25 to 100 nM
N#Cc1ccc(-c2cc(CC3CNCCO3)ccc2N2CCC2)cc1F (stereo not shown) [Example 44, 2′-(azetidin-1-yl)-3-fluoro-5′-[(morpholin-2-yl)methyl]-[1,1′-biphenyl]-4-carbonitrile]	100 to 1000 nM
Cc1nocc1-c1c(CC2CNCCO2)cccc1-c1ccc(C#N)c(F)c1 (stereo not shown) [Example 35, 3-fluoro-2′-(3-methyl-1,2-oxazol-4-yl)-3′-[(morpholin-2-yl)methyl]-[1,1′-biphenyl]-4-carbonitrile]	25 to 100 nM
N#Cc1ccc(-c2cc(CN3[C@@H]4CC[C@H]3[C@@H](N)C4)ccc2Cl)cc1F (racemic) [Example 305, 5'-{[(1S,2S,4R)-2-amino-7-azabicyclo[2.2.1]heptan-7-yl]methyl}-2'-chloro-3-fluoro-[1,1'-biphenyl]-4-carbonitrile]	25 to 100 nM
N#Cc1ccc(-c2cc(F)cc(CC3CNCCO3)c2-c2cncs2)cc1F (stereo not shown) [Example 19, 3,5′-difluoro-3′-[(morpholin-2-yl)methyl]-2′-(1,3-thiazol-5-yl)-[1,1′-biphenyl]-4-carbonitrile]	10 to 25 nM
N#Cc1ccc(-c2cc(CN3[C@@H]4CC[C@H]3[C@@H](N)C4)ccc2-c2ccc(F)cn2)cc1F (racemic) [Example 258, 5'-{[(1S,2S,4R)-2-amino-7-azabicyclo[2.2.1]heptan-7-yl]methyl}-3-fluoro-2'-(5-fluoropyridin-2-yl)-[1,1'-biphenyl]-4-carbonitrile]	25 to 100 nM
N#Cc1ccc(-c2cccc(CN3[C@@H]4CC[C@H]3[C@@H](N)C4)c2OC(F)F)cc1F (racemic) [Example 179, 3'-{[(1S,2S,4R)-2-amino-7-azabicyclo[2.2.1]heptan-7-yl]methyl}-2'-(difluoromethoxy)-3-fluoro-[1,1'-biphenyl]-4-carbonitrile]	10 to 25 nM
N#Cc1ccc(-c2cccc(CN3C4CNCC3C4)c2C2CC2)cc1F [Example 274, 2'-cyclopropyl-3'-({3,6-diazabicyclo[3.1.1]heptan-6-yl}methyl)-3-fluoro-[1,1'-biphenyl]-4-carbonitrile]	100 to 1000 nM
COCC1CCN(c2ccc(CN3[C@@H]4CC[C@H]3[C@@H](N)C4)cc2-c2ccc(C#N)c(F)c2)CC1 (racemic) [Example 209, 5'-{[(1S,2S,4R)-2-amino-7-azabicyclo[2.2.1]heptan-7-yl]methyl}-3-fluoro-2'-[4-(methoxymethyl)piperidin-1-yl]-[1,1'-biphenyl]-4-carbonitrile]	10 to 25 nM
N#Cc1ccc(-c2cc(CN3[C@@H]4CC[C@H]3[C@@H](N)C4)ccc2N2CCC(CF)CC2)cc1F (racemic) [Example 235, 5'-{[(1S,2S,4R)-2-amino-7-azabicyclo[2.2.1]heptan-7-yl]methyl}-3-fluoro-2'-[4-(fluoromethyl)piperidin-1-yl]-[1,1'-biphenyl]-4-carbonitrile]	10 to 25 nM
CC(C)Oc1ccc(CN2[C@@H]3CC[C@H]2[C@@H](N)C3)cc1-c1ccc(C#N)c(F)c1 (racemic) [Example 250, 5'-{[(1S,2S,4R)-2-amino-7-azabicyclo[2.2.1]heptan-7-yl]methyl}-3-fluoro-2'-(propan-2-yloxy)-[1,1'-biphenyl]-4-carbonitrile]	10 to 25 nM

Results, then the compound that gave them:

IC50	SMILES
> 1000 nM	CC(C)N(C)c1ccc(CN2CCN(C)CC2)cc1-c1ccc(C#N)c(F)c1 [Example 295, 3-fluoro-2'-[methyl(propan-2-yl)amino]-5'-[(4-methylpiperazin-1-yl)methyl]-[1,1'-biphenyl]-4-carbonitrile]
< 10 nM	N#Cc1ccc(-c2cccc(N3CCC4NCCC4C3)c2-c2ccns2)cc1F (stereo not shown) [Example 108, 3-fluoro-3'-{octahydro-1H-pyrrolo[3,2-c]pyridin-5-yl}-2'-(1,2-thiazol-5-yl)-[1,1'-biphenyl]-4-carbonitrile]
100 to 1000 nM	C[C@@]1(N)CCN(Cc2cccc(-c3ccc(C#N)c(F)c3)c2C2CC2)C1 [Example 349, 3'-{[(3R)-3-amino-3-methylpyrrolidin-1-yl]methyl}-2'-cyclopropyl-3-fluoro-[1,1'-biphenyl]-4-carbonitrile]
25 to 100 nM	COCCc1ccc(-c2ccc(CC3CNCCO3)cc2-c2ccc(C#N)c(F)c2)c(F)c1 (stereo not shown) [Example 83, 3-fluoro-2′-[2-fluoro-4-(2-methoxyethyl)phenyl]-5′-[(morpholin-2-yl)methyl]-[1,1′-biphenyl]-4-carbonitrile]
100 to 1000 nM	N#Cc1ccc(-c2cc(CC3CNCCO3)ccc2OC[C@@H]2CCCOC2)cc1F (stereo partly drawn) [Example 72, 3-fluoro-5′-[(morpholin-2-yl)methyl]-2′-{[(3R)-oxa-3-yl]methoxy}-[1,1′-biphenyl]-4-carbonitrile]
100 to 1000 nM	Cc1cc(CNCC2CCN(C)C2)c(Cl)c(-c2ccc(C#N)c(F)c2)c1 (stereo not shown) [Example 226, 2'-chloro-3-fluoro-5'-methyl-3'-({[(1-methylpyrrolidin-3-yl)methyl]amino}methyl)-[1,1'-biphenyl]-4-carbonitrile]
100 to 1000 nM	CCN1CCN(c2ccc(CC3CNCCO3)cc2-c2ccc(C#N)c(F)c2)CC1 (stereo not shown) [Example 164, 2′-(4-ethylpiperazin-1-yl)-3-fluoro-5′-[(morpholin-2-yl)methyl]-[1,1′-biphenyl]-4-carbonitrile]
100 to 1000 nM	N#Cc1ccc(-c2cc(CC3CNCCO3)ccc2N2CCC(O)(C(F)(F)F)CC2)cc1F (stereo not shown) [Example 151, 3-fluoro-2′-[4-hydroxy-4-(trifluoromethyl)piperidin-1-yl]-5′-[(morpholin-2-yl)methyl]-[1,1′-biphenyl]-4-]
> 1000 nM	CN1CCOC(Cc2ccc(N3CCC3)c(-c3ccc(C#N)c(F)c3)c2)C1 (stereo not shown) [Example 146, 2′-(azetidin-1-yl)-3-fluoro-5′-[(4-methylmorpholin-2-yl)methyl]-[1,1′-biphenyl]-4-carbonitrile]
25 to 100 nM	CC(C)(O)Cc1ccc(-c2ccc(CC3CNCCO3)cc2-c2ccc(C#N)c(F)c2)c(F)c1 (stereo not shown) [Example 104, 3-fluoro-2′-[2-fluoro-4-(2-hydroxy-2-methylpropyl)phenyl]-5′-[(morpholin-2-yl)methyl]-[1,1′-biphenyl]-4-carbonitrile]
< 10 nM	N#Cc1ccc(-c2cccc(CN3C[C@]4(N)CC[C@H]3C4)c2OC(F)F)cc1F [Example 177, 3'-{[(1S,4S)-4-amino-2-azabicyclo[2.2.1]heptan-2-yl]methyl}-2'-(difluoromethoxy)-3-fluoro-[1,1'-biphenyl]-4-carbonitrile]
> 1000 nM	N#Cc1ccc(-c2cc(CC3CNCCO3)ccc2N2CCOCC2)cc1F (stereo not shown) [Example 167, 3-fluoro-5′-[(morpholin-2-yl)methyl]-2′-(morpholin-4-yl)-[1,1′-biphenyl]-4-carbonitrile]
